Drawing on US20150031668A1, “CHROMAN DERIVATIVES AS TRPM8 INHIBITORS” (AMGEN INC., priority 2013, published 2015), this text covers IC50 for 31 compounds.

pIC50: −log10 of the molar value. Where a name gives a salt, the structure may show the parent alone.

The experiment deals with T1, human TRPM8 (Homo sapiens, UniProt Q7Z2W7).
T1 construct: expressed in transfected cells; host or cells: Chinese hamster ovary (CHO) cells, T-REx tetracycline-inducible expression system (Invitrogen); co-transfected with pcDNA3.1 aequorin
T1 sequence (Q7Z2W7 whole entry): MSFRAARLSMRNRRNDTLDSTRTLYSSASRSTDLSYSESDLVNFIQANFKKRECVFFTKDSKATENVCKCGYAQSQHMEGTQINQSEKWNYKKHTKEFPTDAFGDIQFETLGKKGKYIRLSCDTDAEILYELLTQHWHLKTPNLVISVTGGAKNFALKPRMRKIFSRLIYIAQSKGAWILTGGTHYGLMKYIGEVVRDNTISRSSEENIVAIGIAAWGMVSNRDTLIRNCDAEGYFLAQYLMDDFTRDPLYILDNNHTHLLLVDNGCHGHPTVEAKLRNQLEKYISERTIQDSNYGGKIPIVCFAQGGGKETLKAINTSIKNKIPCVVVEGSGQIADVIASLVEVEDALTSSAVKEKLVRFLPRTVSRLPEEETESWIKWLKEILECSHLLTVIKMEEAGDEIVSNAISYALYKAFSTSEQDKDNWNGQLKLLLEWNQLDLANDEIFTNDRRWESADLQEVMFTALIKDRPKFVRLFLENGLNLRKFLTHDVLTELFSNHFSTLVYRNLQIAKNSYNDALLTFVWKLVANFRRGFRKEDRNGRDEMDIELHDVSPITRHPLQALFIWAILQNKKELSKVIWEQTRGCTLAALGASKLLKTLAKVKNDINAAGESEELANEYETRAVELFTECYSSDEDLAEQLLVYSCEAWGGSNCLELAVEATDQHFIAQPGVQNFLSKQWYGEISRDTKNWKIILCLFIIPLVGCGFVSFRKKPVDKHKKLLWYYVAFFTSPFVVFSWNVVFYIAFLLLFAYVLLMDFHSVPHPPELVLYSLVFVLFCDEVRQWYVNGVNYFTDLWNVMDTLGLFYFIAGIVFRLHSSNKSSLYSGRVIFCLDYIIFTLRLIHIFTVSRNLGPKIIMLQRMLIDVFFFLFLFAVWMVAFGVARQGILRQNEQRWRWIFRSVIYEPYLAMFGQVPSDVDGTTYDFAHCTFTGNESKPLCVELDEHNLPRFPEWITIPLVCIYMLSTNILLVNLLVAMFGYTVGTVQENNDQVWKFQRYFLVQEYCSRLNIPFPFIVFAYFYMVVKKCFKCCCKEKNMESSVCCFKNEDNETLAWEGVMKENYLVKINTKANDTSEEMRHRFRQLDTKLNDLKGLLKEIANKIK
Briefly: Luminescence readout assay for measuring intracellular calcium (aequorin, CHO cells expressing human TRPM8; icilin, L-menthol or cold activation). It counts as cell-based. As to conditions: CHO cells expressing human TRPM8, icilin activation (1 μM), aequorin luminescence; read-out: hTRPM8 IC50. The gist of the method:
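Activation was by 1 μM icilin, 100 μM L-menthol (test compound 2.5 min ahead) or cold buffer below 10° C (compound 1 min ahead). Calcium rise measured as aequorin luminescence in CHO cells with tetracycline-inducible human TRPM8.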
For orientation: A change in cytosolic calcium serves as a functional read-out for many receptors and channels.
On to `O=C(N[C@]1(c2ccc(OC(F)(F)F)cc2)CCOc2cccnc21)c1cc2ccccc2s1` [Example 267, (S)-N-(4-(4-(trifluoromethoxy)phenyl)-3,4-dihydro-2H-pyrano[3,2-b]pyridin-4-yl) benzo[b]thiophene-2-carboxamide formate], for which the pIC50 – broadly, the negative decadic logarithm of the IC50, by convention in mol/L – is 7.43. Consider `N#Cc1ccc(-c2ccc([C@@]3(NC(=O)c4ccc(F)cc4)CCOc4cccnc43)cc2)cc1` [Example 153, (S)—N-(4-(4′-cyano-[1,1′-biphenyl]-4-yl)-3,4-dihydro-2H-pyrano[3,2-b]pyridin-4-yl)-4-fluorobenzamide], for which the pIC50 was 6.95. Take `O=C(N[C@]1(c2ccc(C(F)(F)F)cc2)CCOc2cccnc21)c1ccncc1` [Example 46, (S)-N-(4-(4-(trifluoromethyl)phenyl)-3,4-dihydro-2H-pyrano[3,2-b]pyridin-4-yl)isonicotinamide]: the pIC50 was 6.45. Take `O=C(N[C@]1(c2ccc(OC(F)(F)F)c(F)c2)CCOc2cccnc21)c1cc(Cl)on1` [Example 200, (S)-5-chloro-N-(4-(3-fluoro-4-(trifluoromethoxy)phenyl)-3,4-dihydro-2H-pyrano[3,2-b]pyridin-4-yl) isoxazole-3-carboxainide]: the pIC50 is 6.79.

As for `O=C(N[C@]1(c2ccc(OC(F)(F)F)cc2)CCOc2cccnc21)c1csc2ccccc12` [Example 268, (S)-N-(4-(4-(trifluoromethoxy)phenyl)-3,4-dihydro-2H-pyrano[3,2-b]pyridin-4-yl) benzo[b]thiophene-3-carboxamide formate], the pIC50 was 7.15. The figure for `O=C(N[C@]1(c2ccc(OC(F)(F)F)cc2)CCOc2cccnc21)c1cccc2cnccc12` [Example 249, (S)-N-(4-(4-(trifluoromethoxy)phenyl)-3,4-dihydro-2H-pyrano[3,2-b]pyridin-4-yl)isoquinoline-5-carboxamide formate] is 7.00. The value for `O=C(N[C@]1(c2ccc(OC(F)(F)F)c(F)c2)CCOc2cccnc21)c1ccc(C(=O)O)c(NC2CC2)c1` [Example 302, (S)-2-(cyclopropylamino)-4-((4-(3-fluoro-4-(trifluoromethoxy)phenyl)-3,4-dihydro-2H-pyrano[3,2-b]pyridin-4-yl)carbamoyl)benzoic acid] was 8.40. Consider `Cn1ncc2cc(C(=O)N[C@]3(c4ccc(C(F)(F)F)cc4)CCOc4cccnc43)ccc21` [Example 44, (S)-1-methyl-N-(4-(4-(trifluoromethyl)phenyl)-3,4-dihydro-2H-pyrano[3,2-b]pyridin-4-yl)-1H-indazole-5-carboxamide], for which the pIC50 is 8.10. On to `Cn1cc(C(=O)N[C@]2(c3ccc(OC(F)(F)F)cc3)CCOc3cccnc32)c2ccccc21` [Example 257, (S)-1-methyl-N-(4-(4-(trifluoromethoxy)phenyl)-3,4-dihydro-2H-pyrano[3,2-b]pyridin-4-yl)-1H-indole-3-carboxamide formate], for which the pIC50 is 7.23. The figure for `O=C(N[C@]1(c2ccc(OC(F)(F)F)c(F)c2)CCOc2cccnc21)c1ccc(-c2ncon2)cn1` [Example 282, (S)—N-(4-(3-fluoro-4-(trifluoromethoxy)phenyl)-3,4-dihydro-2H-pyrano[3,2-b]pyridin-4-yl)-5-(1,2,4-oxadiazol-3-yl)picolinamide] is 8.15. The figure for `O=C1CCc2cc(C(=O)N[C@]3(c4ccc(OC(F)(F)F)c(F)c4)CCOc4cccnc43)ccc2N1` [Example 54, (S)-N-(4-(3-fluoro-4-(trifluoromethoxy)phenyl)-3,4-dihydro-2H-pyrano[3,2-b]pyridin-4-yl)-2-oxo-1,2,3,4-tetrahydroquinoline-6-carboxamide] is 7.96; for `O=C(N[C@]1(c2ccc(C(F)(F)F)cc2)CCOc2cccnc21)c1ccc(F)cc1` (single isomer, unassigned) [Example 2] it is 7.07; for `O=C(N[C@]1(c2ccc(OC(F)(F)F)cc2)CCOc2cccnc21)c1cncs1` [Example 233, (S)-N-(4-(4-(trifluoromethoxy)phenyl)-3,4-dihydro-2H-pyrano[3,2-b]pyridin-4-yl)thiazole-5-carboxamide formate] it is 6.65. As to `O=C(N[C@]1(c2ccc(OC(F)(F)F)cc2)CCOc2cccnc21)c1c[nH]c(=O)c2ccccc12` [Example 272, (S)-1-oxo-N-(4-(4-(trifluoromethoxy)phenyl)-3,4-dihydro-2H-pyrano[3,2-b]pyridin-4-yl)-1,2-dihydroisoquinoline-4-carboxamide formate], the pIC50 is 6.74. The value for `COC(=O)c1ccc(C(=O)N[C@]2(c3ccc(OC(F)(F)F)cc3)CCOc3cccnc32)nc1` [Example 176, (S)-methyl 6-((4-(4-(trifluoromethoxy)phenyl)-3,4-dihydro-2H-pyrano[3,2-b]pyridin-4-yl)carbamoyl) nicotinate] was 7.27; that for `Cc1[nH]c(C(=O)N[C@]2(c3ccc(OC(F)(F)F)c(F)c3)CCOc3cccnc32)cc1C(=O)O` [Example 301] was 6.58; that for `O=C(NC1(c2ccc(OC(F)(F)F)cc2)CCOc2cccnc21)c1ccc2oc(=O)[nH]c2c1` (stereo not shown) [Example 23, 2-oxo-N-(4-(4-(trifluoromethoxy)phenyl)-3,4-dihydro-2H-pyrano[3,2-b]pyridin-4-yl)-2,3-dihydrobenzo[d]oxazole-5-carboxamide] was 7.92. The figure for `O=C(Nc1ccc(Cl)nc1)N[C@]1(c2ccc(OC(F)(F)F)c(F)c2)CCOc2cccnc21` [Example 69, (S)-1-(6-chloropyridin-3-yl)-3-(4-(3-fluoro-4-(trifluoromethoxy)phenyl)-3,4-dihydro-2H-pyrano[3,2-b]pyridin-4-yl)urea] is 7.44; for `Cn1c(C(=O)N[C@]2(c3ccc(OC(F)(F)F)cc3)CCOc3cccnc32)nc2ccccc21` [Example 260, (S)-1-methyl-N-(4-(4-(trifluoromethoxy)phenyl)-3,4-dihydro-2H-pyrano[3,2-b]pyridin-4-yl)-1H-benzo[d]imidazole-2-carboxamide formate] it is 7.49. The value for `O=C(N[C@]1(c2ccc(C(F)(F)F)cc2)CCOc2cccnc21)c1ccc(O)cn1` [Example 40, (S)-5-hydroxy-N-(4-(4-(trifluoromethyl)phenyl)-3,4-dihydro-2H-pyrano[3,2-b]pyridin-4-yl)picolinamide] was 8.15; that for `O=C(Nc1ccc(-c2noc(=O)[nH]2)nc1)N[C@]1(c2ccc(OC(F)(F)F)c(F)c2)CCOc2cccnc21` [Example 109, (S)-1-(4-(3-fluoro-4-(trifluoromethoxy)phenyl)-3,4-dihydro-2H-pyrano[3,2-b]pyridin-4-yl)-3-(6-(5-oxo-4,5-dihydro-1,2,4-oxadiazol-3-yl)pyridin-3-yl)urea] was 5.51; that for `Nc1cccc(-c2ccc([C@@]3(NC(=O)c4ccc(F)cc4)CCOc4cccnc43)cc2)c1` [Example 126, (S)-N-(4-(3′-amino-[1,1′-biphenyl]-4-yl)-3,4-dihydro-2H-pyrano[3,2-b]pyridin-4-yl)-4-fluorobenzamide] was 6.04. Take `O=C(Nc1cccc(F)c1)N[C@]1(c2ccc(C(F)(F)F)cc2)CCOc2cccnc21` [Example 72, (S)-1-(3-fluorophenyl)-3-(4-(4-(trifluoromethyl)phenyl)-3,4-dihydro-2H-pyrano[3,2-b]pyridin-4-yl)urea]: the pIC50 is 6.95. With `O=C(N[C@]1(c2ccc(OC(F)(F)F)cc2)CCOc2cccnc21)c1cccc2[nH]cnc12` [Example 238, (S)-N-(4-(4-(trifluoromethoxy)phenyl)-3,4-dihydro-2H-pyrano[3,2-b]pyridin-4-yl)-1H-benzo[d]imidazole-4-carboxamide formate], the pIC50 was 7.38. The value for `O=C(N[C@]1(c2ccc(-c3ccncc3)cc2)CCOc2cccnc21)c1ccc(F)cc1` [Example 116, (S)-4-fluoro-N-(4-(4-(pyridin-4-yl)phenyl)-3,4-dihydro-2H-pyrano[3,2-b]pyridin-4-yl)benzamide] was 6.55. Consider `CCOC(=O)c1cc(C(=O)N[C@]2(c3ccc(OC(F)(F)F)c(F)c3)CCOc3cccnc32)c[nH]1` [Example 187, (S)-ethyl 4-((4-(3-fluoro-4-(trifluoromethoxy)phenyl)-3,4-dihydro-2H-pyrano[3,2-b]pyridin-4-yl)carbamoyl)-1H-pyrrole-2-carboxylate], for which the pIC50 is 7.27. The value for `O=C(N[C@]1(c2ccc(OC(F)(F)F)cc2)CCOc2cccnc21)c1cccs1` [Example 229, (S)-N-(4-(4-(trifluoromethoxy)phenyl)-3,4-dihydro-2H-pyrano[3,2-b]pyridin-4-yl)thiophene-2-carboxamide fomiate] was 6.84; that for `O=C(N[C@]1(c2ccc(OC(F)(F)F)cc2)CCOc2cccnc21)c1cn2ncccc2n1` [Example 243, (S)-N-(4-(4-(trifluoromethoxy)phenyl)-3,4-dihydro-2H-pyrano[3,2-b]pyridin-4-yl)imidazo[1,2-b] pyridazine-2-carboxamide formate] was 7.78. The value for `O=C(O)c1cccc(C(=O)N[C@]2(c3ccc(OC(F)(F)F)c(F)c3)CCOc3cccnc32)c1` [Example 178, (S)-3-((4-(3-fluoro-4-(trifluoromethoxy)phenyl)-3,4-dihydro-2H-pyrano[3,2-b]pyridin-4-yl)carbamoyl) benzoic acid] was 7.14; that for `O=C(N[C@]1(c2ccc(-c3ccc(CO)cc3)cc2)CCOc2cccnc21)c1ccc(F)cc1` [Example 151, (S)-4-fluoro-N-(4-(4′-(hydroxymethyl)-[1,1′-biphenyl]-4-yl)-3,4-dihydro-2H-pyrano[3,2-b]pyridin-4-yl)benzamide] was 5.79; that for `O=C(N[C@]1(c2ccc(OC(F)(F)F)c(F)c2)CCOc2cccnc21)c1ncco1` [Example 189, (S)-N-(4-(3-fluoro-4-(trifluoromethoxy)phenyl)-3,4-dihydro-2H-pyrano[3,2-b]pyridin-4-yl) oxazole-2-carboxamide] was 6.87.
